This data set is described as follows: in vitro. To be noted: human, hela cells, % viability.

Consider 53 molecules from paper PMC12040169 (PLOS Biology, 2025).

Regarding `Cc1cc(C(C)(C)C)ccc1OCCNCCN` [CBK265097G], the viability at 28.5 h, 10 µM came out at 91.3%. The same measure, in the same setting: the figure for `Cc1cccc(N2C(=O)c3ccc(C(=O)OC(C(=O)c4ccccc4)c4ccccc4)cc3C2=O)c1` (centres unmarked) [CBK265098] is 88.8%. Consider `CCOc1ccc(C(=O)NC(=S)Nc2cccc(C(=O)O)c2C)cc1Br` [CBK265100], for which the viability at 28.5 h, 10 µM was found to be 93.6%.

Turning to `CC(C)(c1ccccc1)c1ccc(OCCNCCN)cc1` [CBK265102], the viability at 28.5 h, 10 µM turned out to be 103%.

Consider `CCC(C(=O)NCCCN1CCOCC1)c1ccccc1` (centres unmarked) [CBK265103], for which the viability at 28.5 h, 10 µM amounted to 116%. Turning to `COc1ccc(C(=O)CSc2nnc(C(O)c3ccccc3)n2-c2ccccc2)cc1` (centres unmarked) [CBK265104], the viability at 28.5 h, 10 µM turned out to be 109%. Consider `COc1ccccc1C(=O)Nc1sc2c(c1C(=O)NCc1ccco1)CCCC2` [CBK265105], for which the viability at 28.5 h, 10 µM stood at 100%. Turning to `Clc1ccc(SCCOCCN2CCCCC2)cc1` [CBK265108G], the viability at 28.5 h, 10 µM stood at 87.3%. Turning to `Cc1ccc(S(=O)(=O)NC(CC(=O)Nc2ccc(Br)cc2)c2ccccc2)cc1` (centres unmarked) [CBK265110], the viability at 28.5 h, 10 µM worked out at 93.3%. Take `Cc1ccc2nc(O)cc(C(=O)OCC(=O)c3cccc([N+](=O)[O-])c3)c2c1` [CBK265115]: the viability at 28.5 h, 10 µM is 94.1%. Regarding `CCN1C(=O)/C(=C/c2cc3c(cc2Cl)OCO3)NC1=S` [CBK265117], the viability at 28.5 h, 10 µM worked out at 96.5%. Take `CC(C)(C)CC(C)(C)N=C(S)Nc1ccc2nc(-c3ccccn3)c(-c3ccccn3)nc2c1` [CBK265118]: the viability at 28.5 h, 10 µM was 91%. On to `CCOc1ccc(S(=O)(=O)N2CCCCC2)cc1-c1nc2c(C(C)(C)C)nn(C)c2c(=O)[nH]1` [CBK265119], for which the viability at 28.5 h, 10 µM was found to be 113%. Same read-out and setting: the figure for `O=C1CC(Cc2ccccc2)C(=O)N1CCCn1ccnc1` (centres unmarked) [CBK265123G] is 97.4%; for `C/C(=C\C(=O)Nc1ccc(O)cc1C(=O)O)c1ccccc1` [CBK265125] it is 115%; for `CN(CC(=O)NCc1ccccn1)S(=O)(=O)c1ccc(Br)cc1` [CBK265127] it is 94.4%. Consider `Cc1ccc2nc(-c3ccccc3)c(CC(=O)O)c(C(=O)O)c2c1` [CBK265128], for which the viability at 28.5 h, 10 µM was 87.3%. `O=C1CC(C(=O)Nc2ncccn2)C(c2ccccc2)O1` (centres unmarked) [CBK265130]: the viability at 28.5 h, 10 µM was found to be 106%. Consider `O=C(O)c1ccccc1C(=O)Nc1ccc(Oc2cccc3ccccc23)cc1` [CBK265131], for which the viability at 28.5 h, 10 µM was found to be 84.9%.

In the case of `COc1cc(/C=C2\C(=O)NC(=S)N(c3cccc(C)c3C)C2=O)ccc1OC(C)C(=O)O` (centres unmarked) [CBK265132], the viability at 28.5 h, 10 µM (bulk resorufin, single well) is 98.7%. `O=C(CCN1C(=O)c2ccc([N+](=O)[O-])cc2C1=O)Nc1ccccc1-c1ccccc1` [CBK265134]: the viability at 28.5 h, 10 µM was 103%. Same read-out and setting: the result for `CSCCC(C(=O)O)N1C(=O)c2ccc(C(=O)O)cc2C1=O` (centres unmarked) [CBK265135] reads 110%; that for `O=C(Nc1cccc([N+](=O)[O-])c1)c1ccc2nc(-c3ccccn3)c(-c3ccccn3)nc2c1` [CBK265137], 101%. The same measure, in the same setting: the result for `CCN1C(=O)/C(=C/c2cc(Br)ccc2OCc2cccc([N+](=O)[O-])c2)NC1=S` [CBK265138] reads 93.6%; that for `COc1cc(/C=C2/NC(=O)N(c3ccccc3)C2=O)ccc1OCc1ccc(C(=O)O)cc1` [CBK265139], 84.6%; that for `Cc1ccc(S(=O)(=O)NCCNc2ccc([N+](=O)[O-])cc2C(F)(F)F)cc1` [CBK265140], 90.6%.

Regarding `Cc1ccc(S(=O)(=O)N(CC(=O)N2CCN(C)CC2)Cc2ccc(Cl)cc2Cl)cc1` [CBK265144], the viability at 28.5 h, 10 µM was 100%. On to `CCOC(=O)C(C)N1C(=O)S/C(=C/c2cc(C)n(-c3ccncc3)c2C)C1=O` (centres unmarked) [CBK265145], for which the viability at 28.5 h, 10 µM amounted to 99.9%. As to `Cc1cccc(/C=C2/SC(=S)N(CC(=O)O)C2=O)n1` [CBK265146], the viability at 28.5 h, 10 µM amounted to 82.9%. Still for that read-out and setting: the figure for `CCCc1cc(O)nc(SCC(=O)Nc2ccc(Cl)cc2Cl)n1` [CBK265147] is 83.7%.

On to `CCOC(=O)N1CCN(Cn2nc(COc3ccccc3)n(C)c2=S)CC1` [CBK265148], for which the viability at 28.5 h, 10 µM is 97.4%. As to `O=C(O)c1cc(NC(=O)c2ccc(NC(=O)c3ccco3)cc2)cc(C(=O)O)c1` [CBK265149], the viability at 28.5 h, 10 µM is 111%. As to `CCOC(=O)c1ccccc1OC(=O)c1ccc2c(c1)C1C=CCC1C(C(=O)O)N2` (centres unmarked) [CBK265155], the viability at 28.5 h, 10 µM was determined as 101%. For the molecule `COc1cc(/C=C2/C(=O)NC(=O)N(c3ccc(C)c(Cl)c3)C2=O)ccc1OC(C)C` [CBK265156], the viability at 28.5 h, 10 µM (bulk resorufin, single well) is 118%. For `Cc1ccc(S(=O)(=O)N(CC(=O)Nc2ccc3c(c2)OCCO3)Cc2ccccc2F)cc1` [CBK265157], the viability at 28.5 h, 10 µM was 83.3%. As for `O=C(NCCCO)Nc1ccc2nc(-c3ccco3)c(-c3ccco3)nc2c1` [CBK265161], the viability at 28.5 h, 10 µM was 92.4%. Regarding `CCOC(=O)C(C)N1C(=O)S/C(=C/c2cc(Cl)c(OCC(=O)O)c(Br)c2)C1=O` (centres unmarked) [CBK265163], the viability at 28.5 h, 10 µM came to 99.9%. As to `Cc1cccc(CN(CC(=O)Nc2ccc(F)cc2F)S(=O)(=O)c2ccc(Cl)cc2)c1` [CBK265164], the viability at 28.5 h, 10 µM stood at 84.9%. Consider `CCN(CC)CCN1C(=O)C(O)=C(C(=O)c2ccc(Cl)cc2)C1c1cccc(Br)c1` (centres unmarked) [CBK265165], for which the viability at 28.5 h, 10 µM amounted to 112%.

Regarding `CCCCc1cc(=O)oc2cc(OC(C)C(=O)O)c(Cl)cc12` (centres unmarked) [CBK265166], the viability at 28.5 h, 10 µM turned out to be 95.7%. For the molecule `C/C(=C1/SC(=S)N(c2cccc(C(=O)O)c2)C1=O)c1cccc([N+](=O)[O-])c1` [CBK265168], the viability at 28.5 h, 10 µM turned out to be 100%. Consider `CC1CCN(S(=O)(=O)c2ccc(Cl)c(C(=O)Nc3ccc(C(=O)O)cc3)c2)CC1` [CBK265170], for which the viability at 28.5 h, 10 µM was 111%. With `COc1ccc(S(=O)(=O)Nc2ccc(C)cc2)cc1C(=O)Nc1ccc(C)cc1` [CBK265172], the viability at 28.5 h, 10 µM worked out at 94.7%. Take `COc1ccc([N+](=O)[O-])cc1COc1ccc2c(C(F)(F)F)cc(=O)oc2c1` [CBK265173]: the viability at 28.5 h, 10 µM was determined as 96.4%. In the case of `NC(=O)C1CCN(C2=NC(=O)/C(=C/c3cn(-c4ccccc4)nc3-c3ccc(F)cc3)S2)CC1` [CBK265175], the viability at 28.5 h, 10 µM stood at 106%. In the case of `COc1ccccc1Oc1ccc(S(=O)(=O)N2CCOCC2)cc1S(=O)(=O)N1CCOCC1` [CBK265176], the viability at 28.5 h, 10 µM came out at 97.2%.

With `Cc1ccc(C(=O)C(OC(=O)c2ccc(-c3nnc(-c4ccccc4)o3)cc2)c2ccccc2)cc1` (centres unmarked) [CBK265177], the viability at 28.5 h, 10 µM was 82.7%. As to `COc1ccc(-c2nn(-c3ccccc3)cc2/C=C2\SC(N3CCC(C(N)=O)CC3)=NC2=O)cc1` [CBK265178], the viability at 28.5 h, 10 µM was found to be 105%. As for `NC(=O)C1CCN(C2=NC(=O)/C(=C/c3cn(-c4ccccc4)nc3-c3cccs3)S2)CC1` [CBK265179], the viability at 28.5 h, 10 µM came to 97.3%. Same read-out and setting: the result for `CCc1cc(=O)oc2cc(OCC(=O)O)c(Cl)cc12` [CBK265182] reads 93.9%; that for `O=C(O)c1cccc(NC(=O)c2ccc(S(=O)(=O)N3CCCCC3)cc2)c1` [CBK265185], 86.1%.

On to `O=C(O)CCC(=O)Nc1ccc(Br)c2cccnc12` [CBK265186], for which the viability at 28.5 h, 10 µM was 105%. For `O=C1NC(=O)C(=CNCCN2CCN(C(=O)c3ccccc3)CC2)C(=O)N1` [CBK265190], the viability at 28.5 h, 10 µM (bulk resorufin, single well) is 90.5%.
